Data taken from patent US10047098B2, “C5-C6-oxacyclic fused iminopyrimidinone compounds as bace inhibitors, compositions, and their use” (Merck Sharp & Dohme Corp., priority 2014, dated 2018).

Key:
[1] = molecular target: purified human autoBACE-2 (Homo sapiens (Human), UniProt Q9Y5Z0); test: BACE-2 Assay (BACE-HTRF assay); format: biochemical; conditions: Ki calculated from IC50 using the Cheng-Prusoff equation; QSY7-EISEVNLDAEFC-Eu-amide substrate, pH 5.0
Method: Inhibitor IC50s at purified human autoBACE-2 are determined in a time-resolved endpoint proteolysis assay that measures hydrolysis of the QSY7-[…]-Eu-amide FRET peptide substrate (BACE-HTRF assay). […] DMSO is present at 5% final concentration in the assay. Following laser excitation of sample wells at 320 nm, the fluorescence signal at 620 nm is collected for 400 ms following a 50 μs delay on a RUBYstar HTRF plate reader (BMG Labtechnologies). Raw RFU data is normalized to maximum (1.0 nM BACE/DMSO) and minimum (no enzyme/DMSO) RFU values. […] The Ki values are calculated from the IC50 using the Cheng-Prusoff equation.

[2] = molecular target: Recombinant human soluble BACE1 catalytic domain (Homo sapiens (Human), UniProt P56817); test: BACE1 HTRF FRET Assay; format: biochemical; conditions: Ki calculated from IC50 using the Cheng-Prusoff equation; QSY7-APPswe-Eu substrate, pH 5.0; read-out: BACE-1 Ki
Source text: Reagents: Na^+-Acetate pH 5.0; 1% Brij-35; Glycerol; Dimethyl Sulfoxide (DMSO); Recombinant human soluble BACE1 catalytic domain (>95% pure); APP Swedish mutant peptide substrate (QSY7-APP^swe-Eu): QSY7-EISEVNLDAEFC-Europium-amide.
A homogeneous time-resolved FRET assay can be used to determine IC50 values for inhibitors of the soluble human BACE1 catalytic domain. This assay monitors the increase of 620 nm fluorescence that resulted from BACE1 cleavage of an APPswedish APP^swe mutant peptide FRET substrate (QSY7-EISEVNLDAEFC-Europium-amide). This substrate contains an N-terminal QSY7 moiety that serves as a quencher of the C-terminal Europium fluorophore (620 nm Em). In the absence of enzyme activity, 620 nm fluorescence is low in the assay and increased linearly over 3 hours in the presence of uninhibited BACE1 enzyme. Inhibition of BACE1 cleavage of the QSY7-APP^swe-Eu substrate by inhibitors is manifested as a suppression of 620 nm fluorescence.
Varying concentrations of inhibitors at 3× the final desired concentration in a volume of 10 ul are preincubated with purified human BACE1 catalytic domain (3 nM in 10 μl) for 30 minutes at 30° C. in reaction buffer containing 20 mM Na-Acetate pH 5.0, 10% glycerol, 0.1% Brij-35 and 7.5% DSMO. Reactions are initiated by addition of 10 μl of 600 nM QSY7-APP^swe-Eu substrate (200 nM final) to give a final reaction volume of 30 μl in a 384 well Nunc HTRF plate. The reactions are incubated at 30° C. for 1.5 hours. The 620 nm fluorescence is then read on a Rubystar HTRF plate reader (BMG Labtechnologies) using a 50 millisecond delay followed by a 400 millisecond acquisition time window. Inhibitor IC50 values are derived from non-linear regression analysis of concentration response curves. Ki values are then calculated from IC50 values using the Cheng-Prusoff equation using a previously determined […] of 8 μM for the QSY7-APP^swe-Eu substrate at BACE1.

Chain of purified human autoBACE-2 (Q9Y5Z0 63-473 limits assumed): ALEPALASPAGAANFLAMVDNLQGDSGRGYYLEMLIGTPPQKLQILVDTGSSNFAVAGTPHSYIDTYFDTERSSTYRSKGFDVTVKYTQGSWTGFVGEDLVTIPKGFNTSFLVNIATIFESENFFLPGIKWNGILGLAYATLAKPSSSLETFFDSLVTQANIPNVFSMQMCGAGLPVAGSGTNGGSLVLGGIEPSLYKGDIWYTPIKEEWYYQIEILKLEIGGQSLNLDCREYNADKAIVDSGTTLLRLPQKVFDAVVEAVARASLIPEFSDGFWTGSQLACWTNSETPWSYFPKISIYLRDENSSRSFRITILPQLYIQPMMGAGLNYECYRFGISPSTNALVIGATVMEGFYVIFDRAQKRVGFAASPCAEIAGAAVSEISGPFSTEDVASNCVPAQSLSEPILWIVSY
Chain of Recombinant human soluble BACE1 catalytic domain (P56817 75-416): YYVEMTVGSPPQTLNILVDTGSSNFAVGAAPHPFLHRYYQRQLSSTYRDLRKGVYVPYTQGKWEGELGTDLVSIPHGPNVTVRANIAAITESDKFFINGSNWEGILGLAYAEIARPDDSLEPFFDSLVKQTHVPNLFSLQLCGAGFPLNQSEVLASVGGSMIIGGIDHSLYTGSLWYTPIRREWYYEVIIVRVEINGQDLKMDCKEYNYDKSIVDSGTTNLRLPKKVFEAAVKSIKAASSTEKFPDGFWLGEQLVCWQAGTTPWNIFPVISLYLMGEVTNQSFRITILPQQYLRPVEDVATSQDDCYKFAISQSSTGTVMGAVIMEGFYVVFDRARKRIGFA

SMILES	Ki [1]	Ki [2]
C[C@H]1C[C@H]2C(=O)N(C)C(=N)N[C@@]2(c2cc(Oc3ncc(F)cc3F)ccc2F)CO1 [Example 36, (4aR,6S,8aS)-8a-(5-((3,5-difluoropyridin-2-yl)oxy)-2-fluorophenyl)-2-imino-3,6-dimethylhexahydro-1H-pyrano[3,4-d]pyrimidin-4(4aH)-one]	0.024 µM	0.0089 µM
CN1C(=N)N[C@@]2(c3cc(OCC45CC(C#N)(C4)C5)ccc3F)CO[C@@H](C3CC3)C[C@H]2C1=O [Example 37, 3-((3-((4aR,6R,8aS)-6-cyclopropyl-2-imino-3-methyl-4-oxohexahydro-1H-pyrano[3,4-d]pyrimidin-8a(8H)-yl)-4-fluorophenoxy)methyl)bicyclo[1.1.1]pentane-1-carbonitrile]	0.127 µM	0.009 µM
CN1C(=N)N[C@@]2(c3cc(C#N)ccc3F)CO[C@@H](C3CC3)C[C@H]2C1=O [Example 38, 3-((4aR,6R,8aS)-6-cyclopropyl-2-imino-3-methyl-4-oxohexahydro-1H-pyrano[3,4-d]pyrimidin-8a(8H)-yl)-4-fluorobenzonitrile]	0.398 µM	0.206 µM
CN1C(=N)N[C@@]2(c3cc(Oc4cnccn4)ccc3F)CO[C@@H](C3CC3)C[C@H]2C1=O [Example 39, (4aR,6R,8aS)-6-cyclopropyl-8a-(2-fluoro-5-(pyrazin-2-yloxy)phenyl)-2-imino-3-methylhexahydro-1H-pyrano[3,4-d]pyrimidin-4(4aH)-one]	0.073 µM	0.013 µM
CN1C(=N)N[C@@]2(c3cc(Oc4ccncc4)ccc3F)CO[C@@H](C3CC3)C[C@H]2C1=O [Example 40, (4aR,6R,8aS)-6-cyclopropyl-8a-(2-fluoro-5-(pyridin-4-yloxy)phenyl)-2-imino-3-methylhexahydro-1H-pyrano[3,4-d]pyrimidin-4(4aH)-one]	0.011 µM	0.054 µM
CN1C(=N)N[C@@]2(c3cc(Oc4ccnnc4)ccc3F)CO[C@@H](C3CC3)C[C@H]2C1=O [Example 41, (4aR,6R,8aS)-6-cyclopropyl-8a-(2-fluoro-5-(pyridazin-4-yloxy)phenyl)-2-imino-3-methylhexahydro-1H-pyrano[3,4-d]pyrimidin-4(4aH)-one]	0.065 µM	0.106 µM
COc1cncc(Oc2ccc(F)c([C@]34CO[C@@H](C5CC5)C[C@H]3C(=O)N(C)C(=N)N4)c2)n1 [Example 42, (4aR,6R,8aS)-6-cyclopropyl-8a-(2-fluoro-5-((6-methoxypyrazin-2-yl)oxy)phenyl)-2-imino-3-methylhexahydro-1H-pyrano[3,4-d]pyrimidin-4(4aH)-one]	0.051 µM	0.007 µM
CN1C(=N)N[C@@]2(c3cc(Oc4ncccn4)ccc3F)CO[C@@H](C3CC3)C[C@H]2C1=O [Example 43, (4aR,6R,8aS)-6-cyclopropyl-8a-(2-fluoro-5-(pyrimidin-2-yloxy)phenyl)-2-imino-3-methylhexahydro-1H-pyrano[3,4-d]pyrimidin-4(4aH)-one]	0.191 µM	0.052 µM
CN1C(=N)N[C@@]2(c3cc(OCC4CCC4)ccc3F)CO[C@@H](C3CC3)C[C@H]2C1=O [Example 44, (4aR,6R,8aS)-8a-(5-(cyclobutylmethoxy)-2-fluorophenyl)-6-cyclopropyl-2-imino-3-methylhexahydro-1H-pyrano[3,4-d]pyrimidin-4(4aH)-one]	0.02 µM	0.03 µM
CC(C)COc1ccc(F)c([C@]23CO[C@@H](C4CC4)C[C@H]2C(=O)N(C)C(=N)N3)c1 [Example 45, (4aR,6R,8aS)-6-cyclopropyl-8a-(2-fluoro-5-isobutoxyphenyl)-2-imino-3-methylhexahydro-1H-pyrano[3,4-d]pyrimidin-4(4aH)-one]	0.025 µM	0.045 µM
CN1C(=N)N[C@@]2(c3cc(OCC(F)F)ccc3F)CO[C@@H](C3CC3)C[C@H]2C1=O [Example 46, (4aR,6R,8aS)-6-cyclopropyl-8a-(5-(2,2-difluoroethoxy)-2-fluorophenyl)-2-imino-3-methylhexahydro-1H-pyrano[3,4-d]pyrimidin-4(4aH)-one]	0.041 µM	0.04 µM
COC[C@@H]1C[C@H]2C(=O)N(C)C(=N)N[C@@]2(c2ccc(F)cc2F)CO1 [Example 47, (4aR,6S,8aS)-8a-(2,4-difluorophenyl)-2-imino-6-(methoxymethyl)-3-methylhexahydro-1H-pyrano[3,4-d]pyrimidin-4(4aH)-one]	9.3 µM	5.72 µM
COC(=O)[C@@H]1C[C@H]2C(=O)N(C)C(=N)N[C@@]2(c2ccc(F)cc2F)CO1 [Example 48, methyl (4aR,6S,8aS)-8a-(2,4-difluorophenyl)-2-imino-3-methyl-4-oxooctahydro-1H-pyrano[3,4-d]pyrimidine-6-carboxylate]	1.39 µM	1.11 µM
CCCOc1ccc(F)c([C@]23CO[C@@H](C4CC4)C[C@H]2C(=O)N(C)C(=N)N3)c1 [Example 49, (4aR,6R,8aS)-6-cyclopropyl-8a-(2-fluoro-5-propoxyphenyl)-2-imino-3-methylhexahydro-1H-pyrano[3,4-d]pyrimidin-4(4aH)-one]	0.064 µM	0.066 µM
COCCOc1ccc(F)c([C@]23CO[C@@H](C4CC4)C[C@H]2C(=O)N(C)C(=N)N3)c1 [Example 50, (4aR,6R,8aS)-6-cyclopropyl-8a-(2-fluoro-5-(2-methoxyethoxy)phenyl)-2-imino-3-methylhexahydro-1H-pyrano[3,4-d]pyrimidin-4(4aH)-one]	0.068 µM	0.092 µM
CN1C(=N)N[C@@]2(c3cc(OCC4CC(F)(F)C4)ccc3F)CO[C@@H](C3CC3)C[C@H]2C1=O [Example 51, (4aR,6R,8aS)-6-cyclopropyl-8a-(5-((3,3-difluorocyclobutyl)methoxy)-2-fluorophenyl)-2-imino-3-methylhexahydro-1H-pyrano[3,4-d]pyrimidin-4(4aH)-one]	0.042 µM	0.055 µM
CN1C(=N)N[C@@]2(c3cc(OCC4CC4(F)F)ccc3F)CO[C@@H](C3CC3)C[C@H]2C1=O (some centres unmarked) [Example 52]	0.018 µM	0.031 µM
COC1CC(COc2ccc(F)c([C@]34CO[C@@H](C5CC5)C[C@H]3C(=O)N(C)C(=N)N4)c2)C1 (stereo partly drawn) [Example 53, (4aR,6R,8aS)-6-cyclopropyl-8a-(2-fluoro-5-((3-methoxycyclobutyl)methoxy)phenyl)-2-imino-3-methylhexahydro-1H-pyrano[3,4-d]pyrimidin-4(4aH)-one]	0.117 µM	0.18 µM
CN1C(=N)N[C@@]2(c3cc(OCC45CC(C4)C5)ccc3F)CO[C@@H](C3CC3)C[C@H]2C1=O [Example 54, (4aR,6R,8aS)-8a-(5-(bicyclo[1.1.1]pentan-1-ylmethoxy)-2-fluorophenyl)-6-cyclopropyl-2-imino-3-methylhexahydro-1H-pyrano[3,4-d]pyrimidin-4(4aH)-one]	0.004 µM	0.021 µM
CN1C(=N)N[C@@]2(c3cc(OCC(F)(F)F)ccc3F)CO[C@@H](C3CC3)C[C@H]2C1=O [Example 55, (4aR,6R,8aS)-6-cyclopropyl-8a-(2-fluoro-5-(2,2,2-trifluoroethoxy)phenyl)-2-imino-3-methylhexahydro-1H-pyrano[3,4-d]pyrimidin-4(4aH)-one]	4.61 µM	0.636 µM
CN1C(=N)N[C@@]2(c3cc(Oc4cc(-n5cccn5)ccn4)ccc3F)CO[C@@H](C3CC3)C[C@H]2C1=O [Example 56, (4aR,6R,8aS)-8a-(5-((4-(1H-pyrazol-1-yl)pyridin-2-yl)oxy)-2-fluorophenyl)-6-cyclopropyl-2-imino-3-methylhexahydro-1H-pyrano[3,4-d]pyrimidin-4(4aH)-one]	0.051 µM	0.009 µM
CN1C(=N)N[C@@]2(c3cc(OC4CC(F)(F)C4)ccc3F)CO[C@@H](C3CC3)C[C@H]2C1=O [Example 57, (4aR,6R,8aS)-6-cyclopropyl-8a-(5-(3,3-difluorocyclobutoxy)-2-fluorophenyl)-2-imino-3-methylhexahydro-1H-pyrano[3,4-d]pyrimidin-4(4aH)-one]	0.041 µM	0.043 µM
